pIC50: −log10 of the molar value.

Test [1] deals with TROP2 positive NCI-H292, NCI-H441 cells and TROP2 negative NCI-H460 and NCI-H1703 cells. Briefly: Cell proliferation (cell killing) assay, cell line panel. It is filed as cell-based, human. As to conditions: all TROP2 positive and negative cell lines tested. The method, then:
The cytotoxicity of the ADCs, iSACs and iADCs was measured in a cell proliferation assay. TROP2 positive NCI-H292, NCI-H441 cells and TROP2 negative NCI-H460 and NCI-H1703 cells were obtained from ATCC (American Type Culture Collection) and maintained in DMEM/F12 (1:1), high glucose (Corning) supplemented with 10% heat-inactivated fetal bovine serum (Thermo Scientific), 2 mM glutamax (Thermo Scientific), and 1× Penicillin/Streptomycin (Corning).
Cells were collected and counted by the Vi-CELL Cell Viability Analyzers (Beckman Coulter). A total of 7500 cells in a volume of 50 uL were seeded in each well of a 96-well flat bottom white Polystyrene plate. Test articles were diluted at 2× final concentration in the cell culture medium and 50 uL was added into each treatment well. Assay plates were cultured at 37° C. in a CO2 incubator for 120 hours. For cell viability measurement, 60 μL of Cell Titer-Glo® reagent (Promega Corp. Madison, WI) was added into each well, and plates were processed as per product instructions. Relative luminescence was measured on an ENVISION® plate reader (Perkin-Elmer; Waltham, MA). Relative luminescence readings were converted to % viability using untreated cells as controls. Data was fitted with non-linear regression analysis, using log(inhibitor) vs. response-variable slope, 4 parameter fit equation using GraphPad Prism (GraphPad v 5.00, Software; San Diego, CA).

Test [2] concerns NCI-H292 cells. Briefly: NCI-H292/PBMC co-culture: tumor cell killing (NCI-H292 cell count). As to conditions: TROP2 positive NCI-H292/PBMC co-culture. It is filed as cell-based, human. How it is done:
(§1) The ability of different TROP2 iADCs to induce cancer cell killing, immune activation, and cytokine release was evaluated in an in vitro co-culture assay with human cancer cells and human PBMCs.
(§2) Residual RBCs were removed using ACK lysis buffer (Gibco) for 10 minutes, followed by DPBS wash. Isolated PBMCs were counted, resuspended in freezing medium (Sigma) and stored in a freezing vessel at −80° C. for 24 hours before being transferred to vapor-phase liquid nitrogen for long-term storage.
(§3) For the co-culture assay, cancer cells were plated on transparent flat bottom polystyrene plates and allowed to attach overnight. The next day, serially diluted (1:4) test articles were formulated at 3× starting concentration in complete RPMI media and added onto each well. […]
(§4) On the day of sample collection, cell culture supernatants were collected and stored at −80° C. until cytokine release analyses were performed. […] Cells were then washed with FACS buffer again and read on Cytek flow cytometer. […]
(§5) The ability of different TROP2 iADCs to induce cancer cell killing, immune activation, and cytokine release was evaluated in an in vitro co-culture assay with TROP2 positive CaoV3 cells or NCI-H292 cells and human PBMCs. h1925-C06, an anti-TROP2 antibody, was conjugated to LP-C1 on the heavy chain Y180/F404 sites and to different STING agonist linker payloads at light chain K42 sites. […]

Test [3] relates to human PBMCs. Briefly: NCI-H292/PBMC co-culture: monocyte/immune cell count and activation (FACS). It is filed as cell-based. The settings on record: TROP2 positive NCI-H292/PBMC co-culture. How it is done:
as §1, §2, §3, §4, §5

Test [4] has as its system NCI-H441 cells. Put plainly: NCI-H441/PBMC co-culture (title of Table 16): tumor cell killing. It is filed as cell-based, human. The method, then: as §1, §2
(§6) For the co-culture assay, cancer cells were plated on transparent flat bottom polystyrene plates and allowed to attach overnight. The next day, serially diluted (1:4) test articles were formulated at 3× starting concentration in complete RPMI media and added onto each well. Human PBMCs were thawed and resuspended in RPMI supplemented with 10% heat-inactivated fetal bovine serum from Hyclone, 1% Penicillin/Streptomycin and 2 mM/L-glutamax. PBMCs were then added into the same well at a final ratio of PBMCs:cancer cells=30:1. Plates were incubated for 2 or 3 days at 37° C. with 5% CO2 in a cell culture incubator.
as §4

Test [5] relates to NCI-H441 cells and human PBMCs. Briefly: NCI-H441/PBMC co-culture (title of Table 16): cytokine (IP-10) release. It is filed as cell-based. Set-up: key: NC = Not Calculable due to incomplete curve. The method, then:
as §6
(§7) To measure the cytokine released in this assay, customized MSD V-plex plates were ordered to measure human IL6, IP-10, TNFα, IFNγ, IL-1α, MCP-1, MIP1α. The supernatant was thawed and diluted 1:50 using dilution buffer provided by the vendor before being added into the MSD plates. Cytokine measurement in the cell culture supernatant was carried out using protocols provided by the vendor. Raw data generated by the Meso Scale Discovery (MSD®) SQ120 plate reader were imported into MSD Discovery Workbench software. Unknown sample values were interpolated from standard curves by the software and imported into GraphPad Prism. Each cytokine level was fitted with non-linear regression analysis, using log(agonist) vs. response, variable slope, 4-parameter fit equation in GraphPad Prism. […]

Test [6] relates to NCI-H460 cells. Briefly: NCI-H460/PBMC co-culture (TROP2 negative): tumor cell killing. It is filed as cell-based, human. How it is done: as §1, §2, §6
On the day of sample collection, cell culture supernatants were collected and stored at −80° C. until cytokine release analyses were performed. All the cells in the well were combined (both suspension and adherent cells) and resuspended in 50 μL of PBS containing Live/Dead Fixable Violet Dead Cell Stain (Thermo Fisher) and 1× human Fc block (BD Biosciences) and incubated at 37° C. for 20 minutes. […] After incubation on ice for 1 hour, cells were washed with FACS buffer and fixed with 50 uL/well of 2% PFA (paraformaldehyde) for 20 minutes. Cells were then washed with FACS buffer again and read on Cytek flow cytometer. FACS data analysis was done by Flowjo software to identify monocytes, B cells, CD4+ T cells, CD8+ T cells, NK cells and Dendritic cells and their activation status. Data from Flowjo was exported and plotted using non-linear regression analysis, log(agonist/inhibitor) vs. response, variable slope, 4-parameter fit equation in GraphPad Prism. […]

The test system of test [7] is NCI-H460 cells and human PBMCs. Put plainly: NCI-H460/PBMC co-culture (TROP2 negative): cytokine (IP-10) release. It is filed as cell-based. Set-up: key: NC = Not Calculable due to incomplete curve. How it is done: as §6, §7

One may read the pIC50 as the negative decadic logarithm of the IC50, by convention in mol/L. As to `CC[C@@]1(O)C(=O)OCc2c1cc1n(c2=O)Cc2c-1nc1cc(F)c(C)c3c1c2[C@@H](N)CC3` [Exatecan, exatecan, reference compound], the “cell killing (in words)” value in test [1] is reported as “good cell killing”. Besides, the “tumor cell killing (in words)” value in test [2] and in test [6] (TROP2 negative NCI-H460/PBMC co-culture) was “potent tumor cell killing” each time. In addition, the “immune cell activation and cytokine release (in words)” value in test [3] is listed as “did not induce activation of any immune populations”. The pIC50 in test [4] (Homo sapiens, tumor cell killing, read-out: Cancer Cell Count IC50) is 9.36; in test [6] (Homo sapiens, NCI-H460/PBMC co-culture, TROP2 negative, tumor cell killing, read-out: Cancer Cell Count IC50) it was 9.42. In addition, the “Cancer Cell Count Span” value is listed as 5,749 Cell Count in test [4] (Span = Top minus Bottom of dose response curve) and 23,530 Cell Count in test [6] (NCI-H460/PBMC co-culture, TROP2 negative). The “IP-10 Release Span” value in test [5] and in test [7] was “NC” in each case.

Source of the values: patent publication US20260053942A1, “STING AGONIST IMMUNOSTIMULATORY ANTIBODY DRUG CONJUGATES” (ASTELLAS PHARAMA INC., priority 2024, published 2026).
